The source of these data is US20120295923A1, “Aminocyclohexanes and Aminotetrahydropyrans and Related Compounds As Gamma-Secretase Modulators” (PFIZER INC., priority 2010, published 2012).

Structures can show the parent of a compound that is named as a salt. Where two headings read alike, the source gives them in different places.

The test has as its system γ-secretase; production of amyloid beta protein Aβ(1-42). The test can be described thus: Cell-Based γ-Secretase Assay with ELISA Readout. The conditions noted are these: human WT-APP overexpressing CHO cells. Here is the method: The ability of compounds to modulate production of amyloid beta protein A6(1-42) was determined using human WT-APP overexpressing CHO cells. Cells were plated at 22,000 cells/100 μL well in 96 well tissue culture treated, clear plates (Falcon) in DMEM/F12 based medium and incubated for 24 hours at 37° C. Compounds for testing were diluted in 100% DMSO to achieve an eleven points, half log, dose response for IC50 determinations. Compounds were added in fresh medium to achieve 1% final DMSO. Appropriate vehicle and inhibitor controls were added to obtain maximum and minimum inhibition values for the assay before the plates were incubated for about 24 hours at 37° C.
Coating of ELISA assay plates was initiated by addition of 50 μL/well of an in-house Aβ(1-42) specific antibody at (4 μg/mL) in 0.1 M NaHCO3 (pH 9.0) into black 384-well Maxisorp® plates (Nunc) and incubated overnight at 4° C. The capture antibody was then aspirated from the ELISA assay plates and 100 μL/well of Blocking Buffer (Dulbecco's PBS, 1.5% BSA (Sigma A7030)) added. Ambient temperature incubation was allowed to proceed for a minimum of two hours before washing 2×100 μL with Wash Buffer (Dulbecco's PBS, 0.05% Tween 20). Assay Buffer (Dulbecco's PBS, 1.0% BSA (Sigma A7030), 0.05% Tween 20) 20 μL/well was then added.
After incubation overnight at 37° C., 5% CO2, 40 μL (in duplicate) of experimental conditioned media were transferred into wells of the blocked ELISA plates containing the capture antibody, followed by overnight incubation at 4° C.
After overnight incubation of the ELISA assay plates at 4° C., unbound Aβ peptides were removed thorough (4×100 μL) washes with Wash Buffer. Europium (Eu) labeled (custom labeled, Perkin Elmer) Aβ(1-16) 6e10 Monoclonal Antibody (Covance #SIG-39320 was added, (50 μL/well Eu-6e10 @ 1:5000, 20 uM EDTA) in Assay Buffer. Incubation at ambient temperature for a minimum of 2 hours was followed by (4×100 μL) washes with Wash Buffer, before 50 μL/well of Delfia Enhancement Solution (PerkinElmer) was added. Following a one hour ambient temperature incubation, the plates were read on an EnVision plate reader (PerkinElmer) using standard DELFIA TRF settings. Data analysis including inhibitory IC50 determination was performed using nonlinear regression fit analysis (in-house software) and the appropriate plate mean values for the maximum and minimum inhibition controls.

[1] abbreviates: footnote 8: single determination, read-out: Aβ 42B IC50 (nM) (Geometric Mean of 2-8 Determinations).
Setting [2] is: geometric mean of 2 determinations unless otherwise indicated (footnote 2: 6-14 determinations), read-out: Aβ 42B IC50.

Regarding `CC(C)CCN(CCC(F)(F)F)[C@@H]1CC[C@@H](CC(=O)O)C[C@H]1c1ccc(C(F)(F)F)cc1` (racemic) [Example 9, {(1R,3S,4R)/ (1S,3R,4S)-4-[(3-methylbutyl) (3,3,3-trifluoropropyl)amino]-3-[4-(trifluoromethyl)phenyl]cyclohexyl} acetic acid, hydrochloride salt], the IC50 under setting [1] is 618 nM.
Consider `CC(C)CCN(CCC(C)C)[C@@H]1CC[C@@H]([C@@H](C)C(=O)O)C[C@H]1c1ccc(C(F)(F)F)cc1` (single isomer, unassigned) [Example 7], for which, under setting [2], the IC50 was 1750 nM.
On the same count and under the same terms, next, `CC(C)CCN(CCC(C)C)[C@@H]1CC[C@@H]([C@H](C)C(=O)O)C[C@H]1c1ccc(C(F)(F)F)cc1` (single isomer, unassigned) [Example 8]: 1580 nM.
For the compound `CC(C)C[C@H](C)N(CC1CCCC1)[C@@H]1CC[C@@H](CC(=O)O)C[C@H]1c1ccc(C(F)(F)F)cc1` (single isomer, unassigned) [Example 56], the IC50 (geometric mean of 2-4 determinations unless otherwise indicated (footnote 10: 6-8; footnote 14: single determination), read-out: Aβ 42B IC50) is 544 nM.
On to `Cc1cc(Cl)ccc1[C@@H]1OC(CC(=O)O)CC[C@H]1N(CC1CCCC1)CC1CCCC1` (stereo in doubt) [Example 24, [(2R,5R,6S)-5-[bis(cyclopentyl-methyl)amino]-6-(4-chloro-2-methylphenyl)tetrahydro-2H-pyran-2-yl]acetic acid], for which the IC50 under setting [1] worked out at 9190 nM.
`O=C(O)C[C@@H]1CC[C@@H](N(CC2CCCC2)CC2CCCC2)[C@H](c2ccc(C(F)(F)F)cc2)C1` [Example 1, {(1R,3S,4R)-4-[bis(cyclopentylmethyl)amino]-3-[4-(trifluoromethyl)phenyl]cyclohexyl}acetic acid]: under setting [2], the IC50 came to 229 nM.
Turning to `O=C(O)C[C@@H]1CC[C@@H](N(Cc2ccccc2)CC2CCCC2)[C@H](c2ccc(C(F)(F)F)cc2)C1` [Example 2, {(1R,3S,4R)-4-[benzyl(cyclopentylmethyl)amino]-3-[4-(trifluoromethyl)phenyl]cyclohexyl}acetic acid], the IC50 under setting [2] worked out at 139 nM.
The same measure, in the same setting: for `O=C(O)C[C@@H]1CC[C@@H](N(CC2CCCC2)CC2CCCC2)[C@H](c2ccc(C(F)(F)F)cc2)O1` [Example 3, {(2S,5R,6S)-5-[bis(cyclopentylmethyl)amino]-6-[4-(trifluoromethyl)phenyl]tetrahydro-2H-pyran-2-yl}acetic acid] the value was 357 nM.
Consider `CC(C)CN(CC1CCCC1)[C@@H]1CC[C@@H](CC(=O)O)O[C@H]1c1ccc(C(F)(F)F)cc1` [Example 4, {(2S,5R,6S)-5-[(cyclopentylmethyl)(isobutyl)amino]-6-[4-(trifluoromethyl)phenyl]tetrahydro-2H-pyran-2-yl}acetic acid], for which the IC50 under setting [2] is 608 nM.
Same read-out and setting: for `O=C(O)C[C@@H]1CC[C@@H](N(CC2CCCC2)CC2CCCC2)[C@H](c2ccc(Cl)cc2)C1` [Example 6, [(1R,3S,4R)-4-[bis(cyclopentylmethyl)amino]-3-(4-chlorophenyl)cyclohexyl]acetic acid] the value was 719 nM.
Take `CC(C)CCN(CCC(F)(F)F)[C@@H]1CO[C@@H](CC(=O)O)C[C@H]1c1ccc(C(F)(F)F)cc1` [Example 10, 2-{(2R,4S,5S)-5-[(3-methylbutyl)(3,3,3-trifluoropropyl)amino]-4-[4-(trifluoromethyl)phenyl]tetrahydro-2H-pyran-2-yl} acetic acid, hydrochloride salt]: the IC50 under setting [1] turned out to be 4770 nM.
Same read-out and setting: next, `CC(C)CCN(CCC(F)(F)F)[C@@H]1CC[C@@H](CC(=O)O)C[C@H]1c1ccc(C(F)(F)F)cc1` [Example 11, {(1R,3S,4R)-4-[(3-methylbutyl) (3,3,3-trifluoropropyl)amino]-3-[4-(trifluoromethyl)phenyl]cyclohexyl} acetic acid, hydrochloride salt]: 470 nM.
On the same count and under the same terms, next, `CC(C)CCN(CCC(F)(F)F)[C@@H]1CC[C@@H](CC(=O)O)C[C@H]1c1ccc(C(F)(F)F)nc1` [Example 12, {(1R,3S,4R)-4-[(3-methylbutyl) (3,3,3-trifluoro-propyl)amino]-3-[6-(trifluoromethyl)pyridin-3-yl]cyclohexyl}acetic acid]: 1370 nM; `CC(C)CCN(CC1CCCCC1)[C@@H]1CC[C@@H](CC(=O)O)C[C@H]1c1ccc(C(F)(F)F)cc1` [Example 13, {(1R,3S,4R)-4-[(cyclohexylmethyl) (3-methylbutyl)amino]-3-[4-(trifluoromethyl)phenyl]cyclohexyl} acetic acid]: 236 nM; `CC(C)CCN(CC1(F)CCCCC1)[C@@H]1CC[C@@H](CC(=O)O)C[C@H]1c1ccc(C(F)(F)F)cc1` [Example 14, {(1R,3S,4R)-4-{[(1-fluorocyclo-hexyl)methyl](3-methylbutyl)amino}-3-[4-(trifluoromethyl)phenyl]cyclohexyl} acetic acid]: 103 nM.
Turning to `O=C(O)C[C@@H]1CC[C@@H](N(CC2CCCCC2)CC2CCCCC2)[C@H](c2ccc(C(F)(F)F)cc2)C1` [Example 15, {(1R,3S,4R)-4-[bis(cyclohexylmethyl)amino]-3-[4-(trifluoro-methyl)phenyl]cyclohexyl}acetic acid], under setting [1], the IC50 came to 107 nM.
Same read-out and setting: for `CC(C)CCN(C1CCC(F)(F)CC1)[C@@H]1CC[C@@H](CC(=O)O)C[C@H]1c1ccc(C(F)(F)F)cc1` [Example 16, {(1R,3S,4R)-4-[(4,4-difluoro-cyclohexyl)(3-methylbutyl)amino]-3-[4-(trifluoromethyl)phenyl]cyclohexyl} acetic acid] the value was 496 nM; for `CC(C)CCN(CC1CCCCO1)[C@@H]1CC[C@@H](CC(=O)O)C[C@H]1c1ccc(C(F)(F)F)cc1` (stereo partly drawn) [Example 17, {[1R,3S,4R)-4-[(3-methylbutyl) (tetrahydro-2H-pyran-2-ylmethyl)amino]-3-[4-(trifluoromethyl)phenyl]cyclohexyl} acetic acid], 1510 nM; for `O=C(O)C[C@@H]1CC[C@@H](N(CC2CCCC2)CC2CCCC2)[C@H](c2ccc(F)cc2)C1` [Example 18, [(1R,3S,4R)-4-[bis(cyclopentyl-methyl)amino]-3-(4-fluorophenyl)cyclohexyl]acetic acid], 2630 nM.
On to `O=C(O)C[C@@H]1CC[C@@H](N(CC2CCCC2)CC2CCCC2)[C@H](c2ccc(C(F)(F)F)nc2)O1` [Example 19, {(2S,5R,6S)-5-[bis(cyclopentyl-methyl)amino]-6-[6-(trifluoromethyl)pyridin-3-yl]tetrahydro-2H-pyran-2-yl}acetic acid], for which, under setting [1], the IC50 is 837 nM.
Still for that read-out and setting: next, `O=C(O)C[C@@H]1CC[C@@H](N(CC2CCCC2)CC2CCCC2)[C@H](c2cccc(C(F)(F)F)c2)O1` [Example 20, {(2S,5R,6S)-5-[bis(cyclopentyl-methyl)amino]-6-[3-(trifluoromethyl)phenyl]tetrahydro-2H-pyran-2-yl} acetic acid]: 959 nM; `CC1(CN(CC2CCCC2)[C@@H]2CC[C@@H](CC(=O)O)C[C@H]2c2ccc(C(F)(F)F)cc2)CCCC1` [Example 21, {(1R,3S,4R)-4-{(cyclopentyl-methyl)[(1-methylcyclo-pentyl)methyl]amino}-3-[4-(trifluoromethyl)phenyl]cyclohexyl} acetic acid]: 435 nM.
The same measure, in the same setting: for `O=C(O)C[C@H]1CC[C@@H](N(CC2CCCC2)CC2CCCC2)[C@H](c2ccc(C(F)(F)F)cc2)O1` [Example 22, {(2R,5R,6S)-5-[bis(cyclopentyl-methyl)amino]-6-[4-(trifluoromethyl)phenyl]tetrahydro-2H-pyran-2-yl} acetic acid] the value was 6390 nM.
On the same count and under the same terms, next, `CC1CN([C@@H]2CC[C@@H](CC(=O)O)C[C@H]2c2ccc(C(F)(F)F)cc2)CC2(CCCCC2)C1` (stereo partly drawn) [Example 23, {(1R,3S,4R)-4-(4-methyl-2-azaspiro[5.5]undec-2-yl)-3-[4-(trifluoromethyl)phenyl]cyclohexyl} acetic acid]: 868 nM.
On to `O=C(O)C[C@@H]1CC[C@@H](N2C[C@@H]3CC[C@@H](C3)C2)[C@H](c2ccc(C(F)(F)F)cc2)C1` [Example 25, {(1R,3S,4R)-4-[(1R,5S)-3-azabicyclo[3.2.1]oct-3-yl]-3-[4-(trifluoromethyl)phenyl]cyclohexyl} acetic acid], for which the half-maximal inhibitory concentration (IC50) under setting [1] was found to be 8840 nM.
Same read-out and setting: for `O=C(O)C[C@@H]1CC[C@@H](N(Cc2ccc(F)cc2)CC2CCCC2)[C@H](c2ccc(C(F)(F)F)cc2)C1` [Example 26, {(1R,3S,4R)-4-[(cyclopentyl-methyl)(4-fluorobenzyl)amino]-3-[4-(trifluoromethyl)phenyl]cyclohexyl} acetic acid] the value was 190 nM.
